In US8597904B2, “Pharmaceutical compositions for the treatment of conditions responsive to proteasome inhibition” (priority 2007, dated 2013):

Columns and labels:
p53 = assay: Western blot of total p53 protein levels in SK-N-SH cells; type: cell-based, human
Procedure: Because p53 is a key regulator and mediator of apoptosis, the total protein levels of p53 in the p53-wild type cell line SK-N-SH were measured after treatment of cells with syringolin A. As a control, the p53-deficient cell line SKOV3 was tested in parallel. Cells at a concentration of 1.0×10^5 cells per ml were first seeded in six-well plates containing 2 ml of culture medium per well. […] Cells were incubated for 0, 24, and 48 hours, harvested, and lysed in radioimmuno-precipitation assay (RIPA) buffer (20 mM Tris-HCl, pH 7.5, 0.1% sodium lauryl sulphate, 0.5% sodium deoxycholate, 135 mM NaCl, 1% Triton X-100, 10% glycerol, 2 mM EDTA), supplemented with a protease inhibitor cocktail (Roche Molecular Biochemicals, Indianapolis, Ind.) and phosphatase inhibitors sodium fluoride (NaF; 20 mM) and sodium vanadate (Na3VO4; 0.27 mM). The total protein concentration was determined using the protein assay dye reagent from Bio-Rad Laboratories (Hercules, Calif.) and bovine serum albumin (BSA) as a standard. Cell lysates in Laemmli sample buffer (Bio-Rad Laboratories, Hercules, Calif.) containing 5% (v/v) β-mercaptoethanol were boiled for 5 minutes, and equal amounts of total protein were analyzed by 10% sodium dodecyl sulphate-polyacrylamide gel electrophoresis (SDS-PAGE) and Western blotting using PVDF membranes. p53 was detected in Western blotting with mouse monoclonal anti-p53 (sc-126) (diluted 1:250) from Santa Cruz Biotechnology (Santa Cruz, Calif.). Actin was also detected as a loading control using mouse monoclonal anti-β-actin (A5316) (diluted 1:1000) from Sigma Chemical Co. (St. Louis, Mo.). Alternatively, lysates were blotted with rabbit monoclonal anti-caspase-3 (#9665) (diluted 1:1000) or rabbit polyclonal anti-Akt (#9272) (diluted 1:1000), both from Cell Signalling Technology, Inc. (Beverly, Mass.) to test for levels of procaspase-3 and Akt/PKB. Secondary anti-mouse (diluted 1:5000) and anti-rabbit (diluted 1:5000) antibodies coupled to horseradish peroxidase (HRP) were from Amersham Biosciences (Piscataway, N.J.). Proteins were detected using the ECL Plus reagents (Amersham Biosciences, Piscataway, N.J.) and Kodak BioMax XAR film (Fisher Scientific, Pittsburgh, Pa.). The results are representative of three (p53, procaspase-3) or four (Akt/PKB) independent experiments.
As inhibition of the proteasome is expected to result in increased levels of ubiquitinated proteins (Meng, et al. 1999. Proc. Natl. Acad. Sci. U.S.A. 96:10403-10408, which is incorporated herein by reference in its entirety), the effect of syringolin A on total ubiquitinated protein accumulation was analyzed by immunoblot analysis. To do so, SK-N-SH cells were seeded in 6-well cell culture plates at a concentration of 3.8×10^5 cells per ml (1.98 ml per well). […]

yeast 20S proteasome = molecular target: T1, yeast 20S proteasome (Saccharomyces cerevisiae, UniProt P25043+P30656+P38624); assay: cocrystallization with 20S proteasome, X-ray crystallography; type: binding; details: crystal structure of complex
T1 construct: each was cocrystallized with the yeast 20S proteasome; host or cells: yeast
Procedure: To elucidate the binding mode of syringolin. A and glidobactin A to the proteasome, each was cocrystallized with the yeast 20S proteasome. Crystals of the 20S proteasome were grown in hanging drops at 24° C. as described (Grail et al. 1997. Nature 386:463-471; Groll and Huber. 2005. Methods Enzymol. 398:329-336, each which is incorporated herein by reference in its entirety) and incubated for 60 min with syringolin A or glidobactin A. The protein concentration used for crystallization was 40 mg/ml in Tris-HCI (10 mM, pH 7.5) and EDTA (1 mM). The drops contained 3 μL of protein and 2 μL of the reservoir solution (30 mM magnesium acetate, 100 mM morpholino-ethane-sulphonic acid (pH 7.2) and 10% MPD), X-ray diffraction data to 2.9 Å for the yeast 20S proteasome:syringolin A and to 2.7 Å for the 20S proteasome:glidobactin A-complex were collected using synchrotron radiation with λ=1.05 Å on the BW6-beamline at DESY/Hamburg/Germany and with λ=1.0 Å on the […] at SLS/Villingen/Switzerland, respectively. Crystals were soaked in cryoprotecting buffer (30% MPD, 20 mM magnesium acetate, 100 mM morpholino-ethane-sulfonic acid pH 6.9) and frozen in a stream of liquid nitrogen gas at 90 K (Oxford Cryo Systems). X-ray intensities were evaluated by using the DENZO program package (Otwinowski and Minor. 1997. Methods Enzymol 276:307-326) and data reduction was performed with CCP4 (Potterton et al. 2003. Acta Crystallogr. D Biol. Crystallogr. 59:1131-1137). The space group belongs to P21 with cell dimensions of about a=134 Å, b=302 Å, c=144 Å and β=112° (Table 1). The anisotropy of diffraction was corrected by an overall anisotropic temperature factor by comparing observed and calculated structure amplitudes using the program CNS (Brünger et al. 1998. Acta Crystallogr. D Biol. Crystallogr. 54: 905-921, which is incorporated herein by reference in its entirety). […]

| SMILES | p53 levels (p53; 20 μM, 24 hours after treatment) | protein levels of tumor suppressor protein p53 (p53; 25 μM, time-course up to 24 hours) | binding mode at proteasome active sites (yeast 20S proteasome) | total protein levels of p53 (p53; GlbA treatment) | GlbA-induced p53 levels in presence of 3-MA (p53; GlbA with 3-MA) | binding to the caspase-like active site (yeast 20S proteasome) |
| --- | --- | --- | --- | --- | --- | --- |
| CC(C)[C@H](NC(=O)N[C@H](C(=O)N[C@H]1/C=C/CCNC(=O)/C=C/[C@H](C(C)C)NC1=O)C(C)C)C(=O)O [syringolin A] | rapidly increased | time-dependent increase | covalently binds to the hydroxy group of the active site N-terminal threonine |  |  |  |
| CCCCCCC/C=C/C=C/C(=O)N[C@H](C(=O)N[C@H]1C[C@@H](O)CCNC(=O)/C=C/[C@H](C)NC1=O)[C@@H](C)O [glidobactin A] |  |  | same mechanism of inactivation | strong accumulation of p53 | partially reduced | did not bind |
